Entries after “also recorded” stand apart in the source; their conditions may differ. No end group written: not given here. *: point of attachment. Myristyl = CCCCCCCCCCCCCC*
System: CSV, ABCB5, EGFR, FOXQ1, E-Cadherin in MDA-MB-231 cells
Assay: High resolution digital pathology of mesenchymal/epithelial markers, MDA-MB-231
Assay type: cell-based, human
Description: To examine the signature of CD8, CSV, EGFR, ABCB5, FOXQ1, commercial PD-L1-28-8, nuclear PD-L1, cytoplasmic PDL1 in MDA-MB-231 TNBC cells/TNBC brain cancer clone cells (untreated or treated with bicyclic inhibitors targeting nuclear PD-L1-PTM1). MDA-MB-231/MDA-MB-231-Br cells were permeabilised by incubating with 0.5% Triton X-100 for 15 min, blocked with 1% BSA in PBS and were probed with either CSV (Mouse host), CD8 (mouse host), EGFR (Rabbit host), ABCB5 (Goat Host), ALDH1A (Rabbit Host), NODAL (Goat Host), nuclear PDL1 (rabbit host), cytoplasmic PD-L1 (rabbit host) visualized with a donkey anti-rabbit AF 488, anti-mouse AF 568, donkey anti-goat 647. Cover slips were mounted on glass microscope slides with ProLong Glass Antifade reagent (Life Technologies). Protein targets were localised by digital pathology laser scanning microscopy. Single 0.5 μm sections were obtained using a ASI Digital pathology microscope using 100× oil immersion lens running ASI software. The final image was obtained by averaging four sequential images of the same section. Digital images were analyzed using automated ASI software (Applied Spectral Imaging, Carlsbad, CA) to determine the distribution and intensities automatically with automatic thresholding and background correction of the average nuclear fluorescence intensity (NFI), allowing for the specific targeting of expression of proteins of interest. Digital images were also analysed using ImageJ software (ImageJ, NIH, Bethesda, MD, USA) to determine the total cell fluorescence or cell surface only fluorescence for non-permeabilised cells. Digital images were analysed using ImageJ software (ImageJ, NIH, Bethesda, MD, USA) to determine either the Total Nuclear Fluorescent Intensity (TNFI), the Total Cytoplasmic Fluorescent Intensity (TCFI). ImageJ software with automatic thresholding and manual selection of regions of interest (ROIs) specific for cell nuclei was used to calculate the Pearson's co-efficient correlation (PCC) for each pair of antibodies. PCC values range from: −1=inverse of co-localisation, 0=no co-localisation, +1=perfect co-localisation. The Mann-Whitney nonparametric test (GraphPad Prism, GraphPad Software, San Diego, CA) was used to determine significant differences between datasets.
All breast cancer cell lines used were sourced from ATCC. MDA-MB-231 or MDB-MB-231-Br cell lines were maintained and cultured in DMEM (Invitrogen) supplemented with 10% FBS, 2 mM L-glutamine, and 1% PSN. […]
MDA-MB-231 were permeabilized and treated with either vehicle control or, DL-2 (current stock), or linear PDL1 (PDL1-L1). […] Significant differences are calculated as one-way ANOVA Kruskal-Wallis test comparison to vehicle control. […]

Compound	expression of mesenchymal marker CSV (CFI) (MDA-MB-231, vs vehicle control, listed as linear PDL1 peptide)	expression of the epithelial marker E-Cadherin (MDA-MB-231)	expression of mesenchymal marker CSV (CFI) (MDA-MB-231, vs vehicle control)	mesenchymal stem-like resistant protein markers (CSV, ABCB5, EGFR, FOXQ1) (MDA-MB-231, vs vehicle control)
LTFIFRLRKGRMMDVKK (Myristyl-LTFIFRLRKGRMMDVKK) [PDL1-L1, Myristyl- linear peptide, prototype]	reduce expression of CSV with far less significance; also recorded: able to reduce expression of CSV			
CCCCCCCCCCCCCC(=O)NC(C)C(=O)NC1CSCc2cc3cc(c2)CSC[C@H](NC(=O)[C@H](Cc2ccccc2)NC(=O)[C@H](C(C)CC)NC(=O)[C@H](Cc2ccccc2)NC(=O)[C@H]([C@@H](C)O)NC(=O)C(CC(C)C)NC1=O)C(=O)N[C@@H](CCCNC(C)=N)C(=O)N[C@@H](CC(C)C)C(=O)N[C@@H](CCCNC(=N)N)C(=O)N[C@@H](CCCCN)C(=O)NCC(=O)N[C@@H](CCCNC(=N)N)C(=O)NC(C(=O)N[C@@H](CCSC)C(=O)NC(CCSC)C(=O)N[C@@H](CC(=O)O)C(=O)NC(C(=O)N[C@@H](CCCCN)C(=O)NC(CCCCN)C(=O)O)C(C)C)CSC3 (mixture of isomers) [DL-2]		able to induce expression	inhibit	significantly inhibit
